Counter-ions that a name gives are not always drawn. Like-named read-outs stand apart in the source and are kept apart here.
How the values were obtained:
[1] = tested on: Klebsiella pneumoniae Ad KR; test: MIC in vitro (Table VIII); settings: for MIC: pH 7.4, read-out: Minimum Inhibitory Concentration - MIC
Aerobacter aerogenes 4 = test: MIC in vitro (Table VIII); settings: for MIC: pH 7.4, read-out: Minimum Inhibitory Concentration - MIC
Proteus mirabilis MeF = test: MIC in vitro (Table VIII); settings: for MIC: pH 7.4, read-out: Minimum Inhibitory Concentration - MIC
Salmonella paratyphi B1 = test: MIC in vitro (Table VIII); settings: for MIC: pH 7.4, read-out: Minimum Inhibitory Concentration - MIC
Candida albicans 411 = test: MIC in vitro (Table VIII); settings: for MIC: pH 7.4, read-out: Minimum Inhibitory Concentration - MIC
Escherichia coli Sc = test: MIC in vitro (Table VIII); settings: for MIC: pH 7.4, read-out: Minimum Inhibitory Concentration - MIC
Candida albicans 401 = test: MIC in vitro (Table VIII); settings: for MIC: pH 7.4, read-out: Minimum Inhibitory Concentration - MIC
Streptococcus pyogenes C [2] = test: MIC in vitro (Table VIII); settings: for MIC: pH 7.4, read-out: Minimum Inhibitory Concentration - MIC
[3] = tested on: Pseudomonas aeruginosa Miller; test: MIC in vitro (Table VIII); settings: for MIC: pH 7.4, read-out: Minimum Inhibitory Concentration - MIC
Salmonella paratyphi B2 = test: MIC in vitro (Table VIII); settings: for MIC: pH 7.4, read-out: Minimum Inhibitory Concentration - MIC
[4] = tested on: Staphylococcus aureus ATCC 6538P; test: disc plate assay (microbiological assay); type: cell-based
Candida albicans 406 = test: MIC in vitro (Table VIII); settings: for MIC: pH 7.4, read-out: Minimum Inhibitory Concentration - MIC
Saccharomyces cerevisiae = test: MIC in vitro (Table VIII); settings: for MIC: Saccharomyces cerevisiae, pH 7.4, read-out: Minimum Inhibitory Concentration - MIC
Aerobacter aerogenes 3 = test: MIC in vitro (Table VIII)
Escherichia coli 19 = test: MIC in vitro (Table VIII); settings: for MIC: pH 7.4, read-out: Minimum Inhibitory Concentration - MIC
[5] = tested on: Pseudomonas aeruginosa 8689; test: MIC in vitro (Table VIII); settings: for MIC: pH 7.4, read-out: Minimum Inhibitory Concentration - MIC
Escherichia coli 5 = test: MIC in vitro (Table VIII); settings: for MIC: pH 7.4, read-out: Minimum Inhibitory Concentration - MIC
Streptococcus pyogenes 6 = test: MIC in vitro (Table VIII); settings: for MIC: pH 7.4, read-out: Minimum Inhibitory Concentration - MIC
Proteus vulgaris 2 = test: MIC in vitro (Table VIII); settings: for MIC: pH 7.4, read-out: Minimum Inhibitory Concentration - MIC
[6] = tested on: Klebsiella pneumoniae 17 KR; test: MIC in vitro (Table VIII); settings: for MIC: pH 7.4, read-out: Minimum Inhibitory Concentration - MIC
[7] = tested on: kanamycin resistant bacteria; type: cell-based
[8] = tested on: gram-positive and gram-negative organisms; parameters: species or system mice; settings: mouse
bacteria = type: cell-based
[9] = tested on: gram positive and gram-negative bacteria; type: cell-based
yeast = type: cell-based
[10] = tested on: Staphylococcus aureus Gray; parameters: species or system mice; settings: mouse, in vivo, sc
Streptococcus pyogenes C [11] = tested on: Streptococcus pyogenes C; parameters: species or system mice; settings: mouse, in vivo, sc
Escherichia coli 10536 = tested on: Escherichia coli 10536; parameters: species or system mice; settings: mouse, in vivo, sc
[12] = tested on: Pseudomonas aeruginosa 8689; parameters: species or system mice; settings: mouse, in vivo, sc
[13] = tested on: Staphylococcus aureus 209P; test: MIC in vitro (Table VIII); settings: 24 hours; yeast beef broth (pH 7.4)
[14] = 24 hours, yeast beef broth (pH 7.4), kanamycin-resistant
[15] = 24 hours, yeast beef broth (pH 7.4)

## CN[C@@H]1[C@@H](O)[C@@H](O[C@@H]2[C@@H](O)[C@H](O[C@H]3OC(C(C)N)=CC[C@H]3N)[C@@H](N)C[C@H]2N)OC[C@]1(C)O (stereo partly shown) [Verdamicin I Sulfate]
[1]; 24 h
  MIC: 0.3 µg/mL
[1]; 48 h
  MIC: 0.3 µg/mL
Aerobacter aerogenes 4; 24 h
  MIC: 0.3 µg/mL
Aerobacter aerogenes 4; 48 h
  MIC: 0.3 µg/mL
Proteus mirabilis MeF; 24 h
  MIC: 0.3 µg/mL
Proteus mirabilis MeF; 48 h
  MIC: 0.3 µg/mL
Salmonella paratyphi B1; 24 h
  MIC: 0.3 µg/mL
Salmonella paratyphi B1; 48 h
  MIC: 0.75 µg/mL
Candida albicans 411; 24 h
  MIC: > 10 µg/mL
Candida albicans 411; 48 h
  MIC: > 10 µg/mL
Escherichia coli Sc; 24 h
  MIC: 0.3 µg/mL
Escherichia coli Sc; 48 h
  MIC: 0.75 µg/mL
Candida albicans 401; 24 h
  MIC: > 10 µg/mL
Candida albicans 401; 48 h
  MIC: > 10 µg/mL
Streptococcus pyogenes C [2]; 24 h
  MIC: 0.75 µg/mL
Streptococcus pyogenes C [2]; 48 h
  MIC: 3 µg/mL
[3]; 24 h
  MIC: 0.75 µg/mL
[3]; 48 h
  MIC: 0.75 µg/mL
Salmonella paratyphi B2; 24 h
  MIC: 0.3 µg/mL
Salmonella paratyphi B2; 48 h
  MIC: 0.3 µg/mL
[4]; gentamicin assay
  assay potency in the gentamicin assay: 674 µg/mg
Candida albicans 406; 24 h
  MIC: > 10 µg/mL
Candida albicans 406; 48 h
  MIC: > 10 µg/mL
Saccharomyces cerevisiae; 24 h
  MIC: > 10 µg/mL
Saccharomyces cerevisiae; 48 h
  MIC: > 10 µg/mL
Aerobacter aerogenes 3; 24 h, pH 7.4, read-out: Minimum Inhibitory Concentration - MIC
  MIC: 0.3 µg/mL
Escherichia coli 19; 24 h
  MIC: 0.3 µg/mL
Escherichia coli 19; 48 h
  MIC: 0.3 µg/mL
[5]; 24 h
  MIC: 0.075 µg/mL
[5]; 48 h
  MIC: 0.3 µg/mL
Escherichia coli 5; 24 h
  MIC: 0.3 µg/mL
Escherichia coli 5; 48 h
  MIC: 0.75 µg/mL
Streptococcus pyogenes 6; 24 h
  MIC: 0.3 µg/mL
Streptococcus pyogenes 6; 48 h
  MIC: 0.75 µg/mL
Proteus vulgaris 2; 24 h
  MIC: 0.3 µg/mL
Proteus vulgaris 2; 48 h
  MIC: 0.3 µg/mL
[6]; 24 h
  MIC: 0.3 µg/mL
[6]; 48 h
  MIC: 0.3 µg/mL

## CN[C@@H]1[C@@H](O)[C@@H](O[C@@H]2[C@@H](O)[C@H](O[C@H]3OC(C(C)N)=CC[C@H]3N)[C@@H](N)C[C@H]2N)OC[C@]1(C)O (stereo partly shown) [Verdamicin I]
[7]
  activity against kanamycin resistant bacteria: active against kanamycin resistant bacteria
[8]
  antibacterial activity in vivo: potent antibacterial agent
bacteria
  cross resistance with gentamicin: appears to be cross resistant with gentamicin
[4]
  assay potency in the gentamicin assay: 1000 µg/mg
  dose response curve: parallel to that of gentamicin
[9]
  antibacterial activity in vitro: broad spectrum of antibacterial activity
physchem
  pKa: 8.1
yeast
  in vitro activity against yeast: does not exhibit any substantial in vitro activity against yeast

## Gentamicin
[10]
  PD50: 2.4 mg/kg
Streptococcus pyogenes C [11]
  PD50: 5.0 mg/kg
Escherichia coli 10536
  PD50: 1.7 mg/kg
[12]
  PD50: 1.7 mg/kg

## Gentamicin Sulfate [reference compound]
[1]; [14]
  Minimum Inhibitory Concentration - MIC: 0.3 µg/mL
Aerobacter aerogenes 4; [15]
  Minimum Inhibitory Concentration - MIC: 0.3 µg/mL
Proteus mirabilis MeF; [15]
  Minimum Inhibitory Concentration - MIC: 0.3 µg/mL
Salmonella paratyphi B1; [15]
  Minimum Inhibitory Concentration - MIC: 1.0 µg/mL
Candida albicans 411; [15]
  Minimum Inhibitory Concentration - MIC: > 50 µg/mL
Escherichia coli Sc; [15]
  Minimum Inhibitory Concentration - MIC: 0.75 µg/mL
Candida albicans 401; [15]
  Minimum Inhibitory Concentration - MIC: > 50 µg/mL
Streptococcus pyogenes C [2]; [15]
  Minimum Inhibitory Concentration - MIC: 3.0 µg/mL
[3]; [15]
  Minimum Inhibitory Concentration - MIC: 0.5 µg/mL
Salmonella paratyphi B2; [15]
  Minimum Inhibitory Concentration - MIC: 0.5 µg/mL
Candida albicans 406; [15]
  Minimum Inhibitory Concentration - MIC: > 50 µg/mL
Saccharomyces cerevisiae; [15]
  Minimum Inhibitory Concentration - MIC: > 50 µg/mL
[13]
  Minimum Inhibitory Concentration - MIC: 0.1 µg/mL
Aerobacter aerogenes 3; [15]
  Minimum Inhibitory Concentration - MIC: 0.6 µg/mL
Escherichia coli 19; [15]
  Minimum Inhibitory Concentration - MIC: 0.3 µg/mL
[5]; [15]
  Minimum Inhibitory Concentration - MIC: 0.3 µg/mL
Escherichia coli 5; [15]
  Minimum Inhibitory Concentration - MIC: 0.3 µg/mL
Streptococcus pyogenes 6; [15]
  Minimum Inhibitory Concentration - MIC: 1.0 µg/mL
Proteus vulgaris 2; [15]
  Minimum Inhibitory Concentration - MIC: 0.3 µg/mL
[6]; [14]
  Minimum Inhibitory Concentration - MIC: 0.3 µg/mL

— patent publication US3951746A, “Antibiotics and process for their manufacture” (Schering Corporation, priority 1975, dated 1976)
